# Measurements reported in patent US20100093861A1, “TREATMENT OF INSULIN RESISTANCE OR DISEASES ASSOCIATED WITH INSULIN RESISTANCE” (Stevia ApS, priority 2006, published 2010).
# What was measured:
# [1] = system: isolated NMRI mice islets; assay: Glucose stimulated insulin secretion (GSIS) from isolated NMRI mice islets; assay type: cell-based; settings: 10^−8 mol/l-10^−6 mol/l, 16.7 mmol/l glucose, 60 minutes
# Description: For in vitro studies with steviol and ISV, we included adult female NMRI mice (Taconic, Ry Denmark), all weighing 22-25 g. We used 12 hours light/dark cycle. The Danish Council for Animal experiments has approved the study.
# Islets were isolated by the collagenase digestion technique. In brief, the animals were anesthetized with pentobarbital (50 mg/kg intraperitoneally) and midline laparotomy was performed. The pancreas was retrogradely filled with 3 mL ice-cold Hanks balanced salt solution (([HBSS] Sigma Chemical, St Louis, Mo.) supplemented with 0.3 mg/ml collagenase Boehringer Mannheim GmbH, Germany). The pancreas was subsequently removed and incubated for 19 minutes at 37° C. After rinsing in HBSS, the islets were handpicked under a stereomicroscope and immediately transferred to a tubes containing 1 ml Trizol (Gibco/Invitrogene, Calsbad, Calif., USA). The islets isolated from the NMRI mice were incubated overnight at 37° C. and 95% normal atmosphere/5% CO2 in 10 ml RPMI 1640 containing 11.1 mmol/L glucose supplemented with penicillin G and 100 μg/mL streptomycin (all Gibco/Invitrogene, Calsbad, Calif., USA).
# The NMRI female mice islets were rinsed twice with a modified Krebs-Ringer buffer (KRB) supplemented with 3.3 mmol/L glucose and 0.1% human serum albumin (Sigma). The KRB contained 125 mmol/L NaCl, 5.9 mmol/L KCl, 1.2 MgCl, 1.28 CaCl2 and 25 mmol/L HEPES (Ph 7.4: all Sigma). Single islets were incubated in 100 μL KRB containing glucose (3.3 and 16.7 mmol/L) and steviol/ISV according to the protocols (Jeppesen et al., 2000). After incubation (60 min), 50 μL of the medium was frozen for RIA analysis of insulin.
# isolated mouse islets = settings: previously demonstrated (Jeppesen, P. B. et al., 2000); cited from earlier work
compound,measurement,setting,value
"C=C1C[C@@]23CC[C@H]4[C@@](C)(CCC[C@@]4(C)C(=O)O)[C@@H]2CC[C@]1(O)C3 [steviol, ent-kaur-16-en-13-ol-19-oic acid]","potency on GSIS, isosteviol compared with steviol, at higher concentration",[1],not found any significant difference
same,insulinotropic effect on isolated mouse islets,isolated mouse islets,potent insulinotropic effect
